Source: ChEMBL document CHEMBL5360641, “4'-Ethynyl-2'-deoxy-2'-β-fluoro-2-fluoroadenosine: A Highly Potent and Orally Available Clinical Candidate for the Treatment of HIV-1 Infection” (J Med Chem, 2023)

Columns and labels:
[1] = test system: Human immunodeficiency virus 1; assay: Antiviral activity against HIV1 VSV-G pseudotyped virus infected in human HEK293T cells assessed as inhibition of viral growth preincubated for 3 hrs followed by washout and further incubated with compound for 72 hrs by luciferase assay; format: functional, organism-based; settings: Human immunodeficiency virus 1, HEK-293T
[2] = Cytotoxicity against HEK293T cells assessed as reduction in cell viability by MTT assay; format: toxicity, cell-based, HEK-293T; settings: human
[3] = Selectivity index, ratio of CC50 for cytotoxicity against HEK293T cells assessed as reduction in cell viability by MTT assay to EC50 for antiviral activity against HIV1 VSV-G pseudotyped virus infected in human HEK293T cells assessed as inhibition of viral growth; format: toxicity, cell-based; settings: read-out: Ratio CC50/EC50

| SMILES | EC50 [1] | CC50 [2] | selectivity ratio [3] |
| --- | --- | --- | --- |
| [N-]=[N+]=N[C@]1(CO)O[C@@H](n2cnc3c(N)nc(F)nc32)[C@@H](F)[C@@H]1O | 1.99 nM | > 100 µM | > 50300 |
| C#C[C@]1(CO)O[C@@H](n2cnc3c(N)ncnc32)[C@@H](F)[C@@H]1O | 2.3 nM | 56.5 µM | 24600 |
